Data published in patent US12668586B2, “AhR inhibitor, use thereof, and preparation method therefor” (CHONGQING PHARSCIN INNOBIO CO., LTD., priority 2021, dated 2026).

Molecular target: T1, AhR (Homo sapiens, UniProt P35869)
T1 sequence (P35869 11-848): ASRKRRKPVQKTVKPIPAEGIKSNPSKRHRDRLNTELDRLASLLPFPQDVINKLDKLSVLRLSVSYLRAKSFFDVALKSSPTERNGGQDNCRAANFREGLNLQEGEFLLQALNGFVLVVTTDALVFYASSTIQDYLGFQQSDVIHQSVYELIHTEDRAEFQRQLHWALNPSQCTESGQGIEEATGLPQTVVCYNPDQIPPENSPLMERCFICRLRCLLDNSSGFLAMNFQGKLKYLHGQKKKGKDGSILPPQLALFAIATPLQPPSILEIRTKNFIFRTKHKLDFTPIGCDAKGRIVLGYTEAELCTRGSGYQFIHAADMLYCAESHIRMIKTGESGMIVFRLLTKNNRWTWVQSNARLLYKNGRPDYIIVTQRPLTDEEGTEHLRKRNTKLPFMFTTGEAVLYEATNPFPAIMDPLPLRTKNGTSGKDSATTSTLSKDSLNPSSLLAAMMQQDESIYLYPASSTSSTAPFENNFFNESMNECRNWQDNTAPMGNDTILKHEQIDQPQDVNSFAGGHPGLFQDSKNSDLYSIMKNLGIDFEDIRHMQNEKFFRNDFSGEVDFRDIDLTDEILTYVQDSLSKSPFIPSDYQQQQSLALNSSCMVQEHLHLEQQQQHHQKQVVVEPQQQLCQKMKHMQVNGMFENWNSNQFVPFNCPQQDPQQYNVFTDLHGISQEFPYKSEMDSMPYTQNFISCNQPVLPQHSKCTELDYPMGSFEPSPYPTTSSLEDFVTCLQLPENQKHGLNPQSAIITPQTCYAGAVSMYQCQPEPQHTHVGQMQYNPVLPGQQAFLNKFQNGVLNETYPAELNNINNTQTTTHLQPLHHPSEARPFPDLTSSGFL
Assay: AhR inhibitory activity experiment, in vitro assay 1: HepG2-Lucia AhR cells, Lucia luciferase reporter (QUANTI-Luc)
Assay type: cell-based
Conditions: 24 hours incubation at 37° C., Lucia luciferase in supernatant, read-out: AhR inhibitory activity C50
Description: Test Example: AhR Inhibitory Activity Experiment
When QUANTI-Luc™ (InvivoGen Company) testing reagents are used, AhR gene signaling pathways can be studied by monitoring the activity of Lucia luciferase in the cell culture supernatant.
In Vitro Assay 1: Assay on Inhibitory Activity in Human Cell Lines
Adherent cell layers of HepG2-Lucia™ AhR cells in a logarithmic growth phase were washed with PBS, and then the cells were isolated with trypsin. The isolated cells were centrifuged at 1000 RPM for 5 minutes, the supernatant was removed, and the cells were re-suspended with a test medium by 1.25×10^5 cells/ml.
20,000 cells were added to each well of a 96-well plate, and the 96-well plate was placed in a CO2 incubator to incubate the cells at 37° C. for 24 hours in the absence (negative control) or presence of test compounds with gradient increasing concentrations (typical dilutions: 169 pmol/L, 0.5 nmol/L, 1.5 nmol/L; 4.6 nmol/L, 13.7 nmol/L, 41 nmol/L, 123 nmol/L, 370 nmol/L, 1.1 μmol/L, 3.3 μmol/L and 10 μmol/L, in triplicate).
The 20 μl/well cell supernatant was transferred to a black 96-well plate, a 50 μL/well QUANTI-Luc™ solution was added, and the activity of Lucia luciferase was measured on a multifunctional ELISA reader Spark 10 M (Tecan Company) through a QUANTI-Luc™ luciferase assay system.
Experimental results are shown in Table 1, wherein for IC50 values, “++++” represents IC50<0.05 μM; “+++” represents IC50 between 0.05 μM and 0.2 μM; “++” represents IC50 between 0.2 μM and 1.0 μM; and “+” represents IC50>1.0 μM.

| Structure (SMILES) | IC50 |
| --- | --- |
| C[C@H](NC(=O)c1cc(-c2ccc(Cl)cc2)nc(-c2cnn(C)c2)n1)c1ccc(F)c(F)c1 [Compound 1, (S)-6-(4-chlorophenyl)-N-(1-(3,4-difluorophenyl)ethyl)-2-(1-methyl-1H-pyrazol-4-yl)pyrimidine-4-formamide] | < 50 nM |
| Cn1cc(-c2nc(C(=O)N[C@H]3CCc4ncccc43)cc(-c3ccc(Cl)cc3)n2)cn1 [Compound 2, (S)-6-(4-chlorophenyl)-N-((S)-6,7-dihydro-5H-cyclopentano[B]pyridin-5-yl)-2-(1-methyl-1H-pyrazol-4-yl)pyrimidine-4-formamide] | < 50 nM |
| Cn1cc(-c2nc(C(=O)N[C@H]3c4ccccc4C[C@H]3O)cc(-c3ccc(Cl)cc3)n2)cn1 [Compound 3, (S)-6-(4-chlorophenyl)-N-((1S, 2R)-(−)-1-yl-2-indanol)-2-(1-methyl-1H-pyrazol-4-yl)pyrimidine-4-formamide] | 50 to 200 nM |
| C[C@H](NC(=O)c1cc(-c2ccc(Cl)cc2)nc(-c2cnn(C)c2)n1)c1ccncc1 [Compound 4, (S)-6-(4-chlorophenyl)-N-(1-(4-pyridine)ethyl)-2-(1-methyl-1H-pyrazol-4-yl)pyrimidine-4-formamide] | < 50 nM |
| C[C@H](NC(=O)c1cc(-c2ccc(Cl)cc2)nc(-c2cnn(C)c2)n1)c1ccnc(C(F)(F)F)c1 [Compound 5, (S)-6-(4-chlorophenyl)-N-(1-(2-trifluoromethyl-4-pyridine)ethyl)-2-(1-methyl-1H-pyrazol-4-yl)pyrimidine-4-formamide] | < 50 nM |
| Cn1cc(-c2nc(C(=O)NCCc3c[nH]c4ccccc34)cc(-c3ccc(Cl)cc3)n2)cn1 [Compound 6, (S)-6-(4-chlorophenyl)-N-(2-(1H-indol-3-yl)ethyl)-2-(1-methyl-1H-pyrazol-4-yl)pyrimidine-4-formamide] | > 1000 nM |
| Cn1cc(-c2nc(C(=O)NC3(c4ccc(F)c(F)c4)CC3)cc(-c3ccc(Cl)cc3)n2)cn1 [Compound 7, (S)-6-(4-chlorophenyl)-N-(1-(3,4-difluorophenyl)cyclopropyl)-2-(1-methyl-1H-pyrazol-4-yl)pyrimidine-4-formamide] | < 50 nM |
| COc1ccc([C@H](C)NC(=O)c2cc(-c3ccc(Cl)cc3)nc(-c3cnn(C)c3)n2)cc1F [Compound 8, (S)-6-(4-chlorophenyl)-N-(1-(3-fluoro-4-methoxyphenyl)ethyl)-2-(1-methyl-1H-pyrazol-4-yl)pyrimidine-4-formamide] | < 50 nM |
| C[C@H](NC(=O)c1cc(-c2ccc(Cl)cc2)nc(-c2cnn(C)c2)n1)c1ccnc(Cl)c1 [Compound 9, (S)-6-(4-chlorophenyl)-N-(1-(2-chloro-4-pyridine)ethyl)-2-(1-methyl-1H-pyrazol-4-yl)pyrimidine-4-formamide] | < 50 nM |
| C[C@H](NC(=O)c1cc(-c2ccc(Cl)cc2)nc(-c2cnn(C)c2)n1)c1ccc(O)c(F)c1 [Compound 11, (S)-6-(4-chlorophenyl)-N-(1-(3-fluoro-4-hydroxyphenyl)ethyl)-2-(1-methyl-1H-pyrazol-4-yl)pyrimidine-4-formamide] | > 1000 nM |
| C[C@H](NC(=O)c1cc(-c2ccc(Cl)cc2)nc(-c2cnn(C)c2)n1)c1ccnc(C#N)c1 [Compound 12, (S)-6-(4-chlorophenyl)-N-(1-(2-cyano-4-pyridine)ethyl)-2-(1-methyl-1H-pyrazol-4-yl)pyrimidine-4-formamide] | < 50 nM |
| C[C@H](NC(=O)c1cc(-c2ccc(Cl)cc2)nc(-c2cnn(C)c2)n1)c1ccc(Cl)c(F)c1 [Compound 13, (S)-6-(4-chlorophenyl)-N-(1-(3-fluoro-4-chlorophenyl)ethyl)-2-(1-methyl-1H-pyrazol-4-yl)pyrimidine-4-formamide] | < 50 nM |
| C[C@H](NC(=O)c1cc(-c2ccc(Cl)cc2)nc(-c2cnn(C)c2)n1)c1cnn(C)c1 [Compound 14, (S)-6-(4-chlorophenyl)-N-(1-(1-methyl-1H-pyrazol-4-yl)ethyl)-2-(1-methyl-1H-pyrazol-4-yl)pyrimidine-4-formamide] | < 50 nM |
| C[C@H](NC(=O)c1cc(-c2ccc(Cl)cc2)nc(-c2cnn(C)c2)n1)c1ccnc(F)c1 [Compound 15, (S)-6-(4-chlorophenyl)-N-(1-(2-fluoro-4-pyridine)ethyl)-2-(1-methyl-1H-pyrazol-4-yl)pyrimidine-4-formamide] | < 50 nM |
| C[C@H](NC(=O)c1cc(-c2ccc(Cl)cc2)nc(-c2cnn(C)c2)n1)c1ccc2c(c1)OCO2 [Compound 16, (S)-6-(4-chlorophenyl)-N-(1-[5(2H-1,3-benzodioxomethylene)]ethyl)-2-(1-methyl-1H-pyrazol-4-yl)pyrimidine-4-formamide] | 50 to 200 nM |
| C[C@H](NC(=O)c1cc(-c2ccc(Cl)cc2)nc(-c2cnn(C)c2)n1)c1ccn2ncnc2c1 [Compound 17] | < 50 nM |
| CC[C@H](NC(=O)c1cc(-c2ccc(Cl)cc2)nc(-c2cnn(C)c2)n1)c1ccc(F)cc1 [Compound 18, (S)-6-(4-chlorophenyl)-N-(1-(4-fluorophenyl)n-propyl)-2-(1-methyl-1H-pyrazol-4-yl)pyrimidine-4-formamide] | < 50 nM |
| Cn1cc(-c2nc(C(=O)N[C@H](c3ccc(F)cc3)C3CC3)cc(-c3ccc(Cl)cc3)n2)cn1 [Compound 19, (S)-6-(4-chlorophenyl)-N-(1-cyclopropyl(4-fluorophenyl))-2-(1-methyl-1H-pyrazol-4-yl)pyrimidine-4-formamide] | < 50 nM |
| Cn1cc(-c2nc(C(=O)N[C@H]3CCc4cc(F)c(F)cc43)cc(-c3ccc(Cl)cc3)n2)cn1 [Compound 20, (S)-6-(4-chlorophenyl)-N-((S)-(5,6-difluoro-2,3-dihydro)-(−)-1-yl-2-indene)-2-(1-methyl-1H-pyrazol-4-yl)pyrimidine-4-formamide] | 50 to 200 nM |
| Cn1cc(-c2nc(C(=O)N[C@H]3CCc4ccc(F)cc43)cc(-c3ccc(Cl)cc3)n2)cn1 [Compound 21, (S)-6-(4-chlorophenyl)-N-((S)-(6-fluoro-2,3-dihydro)-(−)-1-yl-2-indene)-2-(1-methyl-1H-pyrazol-4-yl)pyrimidine-4-formamide] | 50 to 200 nM |
| Cn1cc(-c2nc(C(=O)NCC3(c4ccc(Cl)cc4)CC3)cc(-c3ccc(Cl)cc3)n2)cn1 [Compound 22, (S)-6-(4-chlorophenyl)-N-(1-[1-(4-chlorophenyl)cyclopropyl]methyl)-2-(1-methyl-1H-pyrazol-4-yl)pyrimidine-4-formamide] | > 1000 nM |
| Cn1cc(-c2nc(C(=O)N[C@H]3CCCc4ncccc43)cc(-c3ccc(Cl)cc3)n2)cn1 [Compound 23, (S)-6-(4-chlorophenyl)-N-((S)-5,6,7,8-tetrahydro-6H-quinol-5-yl)-2-(1-methyl-1H-pyrazol-4-yl)pyrimidine-4-formamide] | < 50 nM |
| C[C@H](NC(=O)c1cc(-c2ccc(Cl)cc2)nc(-c2cnn(C)c2)n1)c1ccccc1C(F)(F)F [Compound 24, (S)-6-(4-chlorophenyl)-N-(1-(o-trifluoromethylphenyl)ethyl)-2-(1-methyl-1H-pyrazol-4-yl)pyrimidine-4-formamide] | 200 to 1000 nM |
| Cn1cc(-c2nc(C(=O)N[C@H]3CC(C)(C)c4ccccc43)cc(-c3ccc(Cl)cc3)n2)cn1 [Compound 25, (S)-6-(4-chlorophenyl)-N-((S)-(3,3-dimethyl-2,3-dihydro)-(−)-1-yl-2-indene)-2-(1-methyl-1H-pyrazol-4-yl)pyrimidine-4-formamide] | > 1000 nM |
| C[C@H](NC(=O)c1cc(-c2ccc(Cl)cc2)nc(-c2cnn(C)c2)n1)c1cccc(F)c1 [Compound 26, (S)-6-(4-chlorophenyl)-N-(1-(3-fluorophenyl)ethyl)-2-(1-methyl-1H-pyrazol-4-yl)pyrimidine-4-formamide] | < 50 nM |
